# Laboratory results: US7625908B2, “Quinazoline derivatives” (AstraZeneca AB, priority 2003, dated 2009)
# How the values were obtained:
# erbB2 tyrosine kinase = target: T1, erbB2 tyrosine kinase (Homo sapiens, UniProt P04626); assay: Protein tyrosine kinase phosphorylation assay, Test (a), erbB2; format: biochemical; conditions: recombinant intracellular fragment, ATP at Km; read-out: IC50 (μM) Test (a): Inhibition of erbB2 tyrosine kinase protein phosphorylation
# T1 construct: Recombinant intracellular fragments of EGFR, erbB2 and erbB4; made in house; host or cells: baculovirus/Sf21 insect cells (cleared lysate used)
# Procedure: (§1) a) Protein Tyrosine Kinase phosphorylation Assays
# (§2) This test measures the ability of a test compound to inhibit the phosphorylation of a tyrosine containing polypeptide substrate by an erb receptor tyrosine kinase enzyme.
# (§3) Recombinant intracellular fragments of EGFR, erbB2 and erbB4 (accession numbers X00588, X03363 and L07868 respectively) were cloned and expressed in the baculovirus/Sf21 system. Lysates were prepared from these cells by treatment with ice-cold lysis buffer (20 mM N-2-hydroxyethylpiperizine-N′-2-ethanesulfonic acid (HEPES) pH7.5, 150 mM NaCl, 10% glycerol, 1% Triton X-100, 1.5 mM MgCl2, 1 mM ethylene glycol-bis(β-aminoethyl ether) N′,N′,N′,N′-tetraacetic acid (EGTA), plus protease inhibitors and then cleared by centrifugation.
# (§4) Constitutive kinase activity of these recombinant proteins was determined by their ability to phosphorylate a synthetic peptide (made up of a random co-polymer of Glutamic Acid, Alanine and Tyrosine in the ratio of 6:3:1). Specifically, Maxisorb™ 96-well immunoplates were coated with synthetic peptide (0.2 μg of peptide in a 200 μl phosphate buffered saline (PBS) solution and incubated at 4° C. overnight). Plates were washed in 50 mM HEPES pH 7.4 at room temperature to remove any excess unbound synthetic peptide. […]
# (§5) The immobilised phospho-peptide product of the reaction was detected by immunological methods. […] After further washing, HRP activity in each well of the plate was measured colorimetrically using 22′-Azino-di-[3-ethylbenzthiazoline sulfonate (6)]diammonium salt crystals (ABTS™ from Roche) as a substrate.
# (§6) Quantification of colour development and thus enzyme activity was achieved by the measurement of absorbance at 405 nm on a Molecular Devices ThermoMax microplate reader. Kinase inhibition for a given compound was expressed as an IC50 value. […] The range of phosphorylation was calculated from the positive (vehicle plus ATP) and negative (vehicle minus ATP) control values.
# [1] = target: T2, erbB2 in a MCF7 derived cell line (Clone 24 cells) (Homo sapiens, UniProt P04626); assay: Clone 24 phospho-erbB2 cell assay, Test (d); format: cell-based; conditions: 4 hours, read-out: IC50 (μM) Test (d): Inhibition of erbB2 tyrosine kinase protein phosphorylation
# T2 construct: to give a cell line that overexpresses full length wild type erbB2 protein; expressed in transfected cells
# Procedure: d) Clone 24 Phospho-erbB2 Cell Assay
# This immunofluorescence end point assay measures the ability of a test compound to inhibit the phosphorylation of erbB2 in a MCF7 (breast carcinoma) derived cell line which was generated by transfecting MCF7 cells with the full length erbB2 gene using standard methods to give a cell line that overexpresses full length wild type erbB2 protein (hereinafter ‘Clone 24’ cells).
# Clone 24 cells were cultured in Growth Medium (phenol red free Dulbecco's modified Eagle's medium (DMEM) containing 10% foetal bovine serum, 2 mM glutamine and 1.2 mg/ml G418) in a 7.5% CO2 air incubator at 37° C. Cells were harvested from T75 stock flasks by washing once in PBS (phosphate buffered saline, pH7.4, Gibco No. 10010-015) and harvested using 2 mls of Trypsin (1.25 mg/ml)/ethylaminediaminetetraacetic acid (EDTA) (0.8 mg/ml) solution. The cells were resuspended in Growth Medium. Cell density was measured using a haemocytometer and viability was calculated using Trypan Blue solution before being further diluted in Growth Medium and seeded at a density of 1×10^4 cells per well (in 10 ul) into clear bottomed 96 well plates (Packard, No. 6005182).
# 3 days later, Growth Medium was removed from the wells and replaced with 100 ul Assay Medium (phenol red free DMEM, 2 mM glutamine, 1.2 mg/ml G418) either with or without erbB inhibitor compound. Plates were returned to the incubator for 4 hours and then 20 μl of 20% formaldehyde solution in PBS was added to each well and the plate was left at room temperature for 30 minutes. This fixative solution was removed with a multichannel pipette, 100 μl of PBS was added to each well and then removed with a multichannel pipette and then 50 μl PBS was added to each well. Plates were then sealed and stored for up to 2 weeks at 4° C.
# Immunostaining was performed at room temperature. […]
# The Fluorescence signal is each well was measured using an Acumen Explorer Instrument (Acumen Bioscience Ltd.), a plate reader that can be used to rapidly quantitate features of images generated by laser-scanning. […]
# EGFR tyrosine kinase = target: T3, EGFR tyrosine kinase (Homo sapiens, UniProt P00533); assay: Protein tyrosine kinase phosphorylation assay, Test (a), EGFR; format: biochemical; conditions: recombinant intracellular fragment, ATP at Km; read-out: IC50 (μM) Test (a): Inhibition of EGFR tyrosine kinase protein phosphorylation
# T3 construct: Recombinant intracellular fragments of EGFR, erbB2 and erbB4; made in house; host or cells: baculovirus/Sf21 insect cells (cleared lysate used)
# Procedure: as §1, §2, §3, §4, §5, §6
# T3 sequence (P00533 669-1210 limits assumed): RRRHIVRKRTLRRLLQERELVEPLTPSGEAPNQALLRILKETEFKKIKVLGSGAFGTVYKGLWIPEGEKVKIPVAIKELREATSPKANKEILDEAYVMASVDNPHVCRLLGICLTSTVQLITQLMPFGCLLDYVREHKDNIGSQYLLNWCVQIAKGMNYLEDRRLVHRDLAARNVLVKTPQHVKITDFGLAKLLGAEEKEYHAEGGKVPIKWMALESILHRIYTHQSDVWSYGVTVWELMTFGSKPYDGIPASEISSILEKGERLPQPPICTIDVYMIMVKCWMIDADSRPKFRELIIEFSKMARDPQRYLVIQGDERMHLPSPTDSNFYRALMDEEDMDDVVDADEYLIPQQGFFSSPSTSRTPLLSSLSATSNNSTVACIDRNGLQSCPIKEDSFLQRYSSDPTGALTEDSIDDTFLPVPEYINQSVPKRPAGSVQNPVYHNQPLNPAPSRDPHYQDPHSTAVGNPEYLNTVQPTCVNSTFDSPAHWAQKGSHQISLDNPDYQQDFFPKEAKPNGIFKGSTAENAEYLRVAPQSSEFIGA
# T2 sequence (P04626 23-1255): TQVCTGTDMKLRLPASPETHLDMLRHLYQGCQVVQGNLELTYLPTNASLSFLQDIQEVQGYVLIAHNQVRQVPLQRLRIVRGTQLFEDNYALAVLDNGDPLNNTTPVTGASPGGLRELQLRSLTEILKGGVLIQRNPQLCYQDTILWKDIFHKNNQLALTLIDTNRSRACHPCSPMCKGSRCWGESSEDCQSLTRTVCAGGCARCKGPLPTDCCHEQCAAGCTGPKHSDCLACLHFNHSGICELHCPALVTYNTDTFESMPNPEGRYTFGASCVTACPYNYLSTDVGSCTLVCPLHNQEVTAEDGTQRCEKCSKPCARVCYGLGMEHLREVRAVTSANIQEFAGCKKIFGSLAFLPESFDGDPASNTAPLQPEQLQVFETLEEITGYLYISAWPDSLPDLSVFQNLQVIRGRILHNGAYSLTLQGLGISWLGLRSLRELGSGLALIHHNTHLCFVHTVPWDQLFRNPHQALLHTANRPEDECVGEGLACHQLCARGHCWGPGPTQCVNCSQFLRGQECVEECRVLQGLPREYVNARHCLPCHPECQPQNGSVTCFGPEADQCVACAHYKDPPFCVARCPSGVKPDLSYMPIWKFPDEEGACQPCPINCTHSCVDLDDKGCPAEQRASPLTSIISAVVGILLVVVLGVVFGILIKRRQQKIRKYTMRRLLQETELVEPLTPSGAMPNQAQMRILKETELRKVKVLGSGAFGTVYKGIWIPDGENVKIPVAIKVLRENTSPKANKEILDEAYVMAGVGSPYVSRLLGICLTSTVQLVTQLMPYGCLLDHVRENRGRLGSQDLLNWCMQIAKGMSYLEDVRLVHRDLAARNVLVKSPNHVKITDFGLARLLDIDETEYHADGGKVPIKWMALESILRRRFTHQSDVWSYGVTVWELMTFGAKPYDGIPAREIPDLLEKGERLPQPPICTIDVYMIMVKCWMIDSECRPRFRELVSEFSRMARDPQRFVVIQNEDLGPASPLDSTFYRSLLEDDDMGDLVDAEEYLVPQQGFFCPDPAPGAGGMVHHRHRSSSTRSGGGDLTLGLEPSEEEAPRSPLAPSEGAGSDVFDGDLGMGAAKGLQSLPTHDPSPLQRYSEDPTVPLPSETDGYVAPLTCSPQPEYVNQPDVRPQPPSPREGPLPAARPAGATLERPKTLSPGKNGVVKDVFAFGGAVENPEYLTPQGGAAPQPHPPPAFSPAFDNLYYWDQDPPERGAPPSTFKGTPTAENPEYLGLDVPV
# T1 sequence (P04626 676-1255 limits assumed): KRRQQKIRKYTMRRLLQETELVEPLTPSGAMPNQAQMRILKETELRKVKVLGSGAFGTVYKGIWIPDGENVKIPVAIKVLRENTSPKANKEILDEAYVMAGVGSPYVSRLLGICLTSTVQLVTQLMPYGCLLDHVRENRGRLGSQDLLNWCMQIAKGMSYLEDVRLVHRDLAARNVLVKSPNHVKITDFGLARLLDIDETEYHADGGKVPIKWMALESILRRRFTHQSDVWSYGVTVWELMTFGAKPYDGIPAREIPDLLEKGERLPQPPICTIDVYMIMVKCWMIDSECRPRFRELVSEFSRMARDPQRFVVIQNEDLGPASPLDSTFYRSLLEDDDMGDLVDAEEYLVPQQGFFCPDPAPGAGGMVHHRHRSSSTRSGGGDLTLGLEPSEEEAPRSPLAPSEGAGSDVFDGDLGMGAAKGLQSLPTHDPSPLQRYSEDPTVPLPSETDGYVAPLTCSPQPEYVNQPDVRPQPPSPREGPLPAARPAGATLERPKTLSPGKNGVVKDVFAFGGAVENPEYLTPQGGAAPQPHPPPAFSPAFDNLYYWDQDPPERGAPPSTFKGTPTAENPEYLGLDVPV
IC50 (erbB2 tyrosine kinase) [µM],IC50 [1] [µM],IC50 (EGFR tyrosine kinase) [µM],Compound
0.002,0.009,0.414,"O=C(CO)N(CCOc1cccc2ncnc(Nc3ccc(OCc4ccccn4)c(Cl)c3)c12)C1CCOCC1 [Example 21, N-{2-[(4-{[3-Chloro-4-(pyridin-2-ylmethoxy)phenyl]amino}quinazolin-5-yl)oxy]ethyl}-2-hydroxy-N-(tetrahydro-2H-pyran-4-yl)acetamide]"
0.002,0.112,0.197,"CC(O)C(=O)N(C)CCOc1cccc2ncnc(Nc3ccc(OCc4ccccn4)c(Cl)c3)c12 (stereo not drawn) [Example 28, N-{2-[(4-{[3-Chloro-4-(pyridin-2-ylmethoxy)phenyl]amino}quinazolin-5-yl)oxy]ethyl}-2-hydroxy-N-methylpropanamide]"
0.017,0.021,1.88,"CC(=O)N(C)C[C@@H](C)Oc1cccc2ncnc(Nc3ccc(Oc4ccc(C)nc4)c(C)c3)c12 [Example 104, N-Methyl-N-((2R)-2-{[4-({3-methyl-4-[(6-methylpyridin-3-yl)oxy]phenyl}amino)quinazolin-5-yl]oxy}propyl)acetamide]"
